US8871777B2, “Phenylpyrimidone compounds, the pharmaceutical compositions, preparation methods and uses thereof” (Topharman Shanghai Co., Ltd., priority 2008, dated 2014)
pIC50: −log10 of the molar value.

Tests used:
[1] = molecular target: T1, PDE6 in bovine retina (Bos taurus, UniProt P11541+P23439); assay: PDE6 enzyme inhibition activity test (scintillation proximity); type: biochemical; conditions: for pIC50: PDE6 separated from bovine retina, read-out: PDE6 IC50; for PDE6 IC50/PDE5 IC50: selectivity, ratio of IC50 PDE6/IC50 PDE5
T1 construct: obtained by suitably treating various tissues and separating the enzyme with FPLC; from tissue; host or cells: bovine retina
T1 sequence (P11541 2-856 limits assumed): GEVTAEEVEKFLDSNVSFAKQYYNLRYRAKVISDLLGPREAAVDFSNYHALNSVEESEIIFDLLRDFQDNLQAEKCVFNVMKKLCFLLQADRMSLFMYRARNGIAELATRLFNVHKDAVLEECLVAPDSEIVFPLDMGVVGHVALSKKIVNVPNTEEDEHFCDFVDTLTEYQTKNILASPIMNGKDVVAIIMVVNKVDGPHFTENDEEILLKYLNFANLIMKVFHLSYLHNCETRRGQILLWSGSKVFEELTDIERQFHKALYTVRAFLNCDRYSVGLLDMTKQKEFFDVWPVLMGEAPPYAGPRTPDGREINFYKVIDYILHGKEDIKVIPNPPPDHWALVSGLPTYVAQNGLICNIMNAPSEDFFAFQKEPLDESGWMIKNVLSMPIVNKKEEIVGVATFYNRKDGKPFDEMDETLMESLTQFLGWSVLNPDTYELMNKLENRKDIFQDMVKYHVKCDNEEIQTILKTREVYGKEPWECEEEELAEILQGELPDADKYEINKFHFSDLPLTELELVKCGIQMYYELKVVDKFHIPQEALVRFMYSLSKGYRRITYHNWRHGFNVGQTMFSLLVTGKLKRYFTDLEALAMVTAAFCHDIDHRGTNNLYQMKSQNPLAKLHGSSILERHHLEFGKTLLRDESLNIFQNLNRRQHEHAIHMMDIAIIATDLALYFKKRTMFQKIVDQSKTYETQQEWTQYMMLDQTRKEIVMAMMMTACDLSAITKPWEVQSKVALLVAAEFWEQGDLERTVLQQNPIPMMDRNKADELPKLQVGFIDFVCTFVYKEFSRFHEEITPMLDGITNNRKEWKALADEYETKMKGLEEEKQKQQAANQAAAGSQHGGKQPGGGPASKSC
T1 sequence (P23439 2-850 limits assumed): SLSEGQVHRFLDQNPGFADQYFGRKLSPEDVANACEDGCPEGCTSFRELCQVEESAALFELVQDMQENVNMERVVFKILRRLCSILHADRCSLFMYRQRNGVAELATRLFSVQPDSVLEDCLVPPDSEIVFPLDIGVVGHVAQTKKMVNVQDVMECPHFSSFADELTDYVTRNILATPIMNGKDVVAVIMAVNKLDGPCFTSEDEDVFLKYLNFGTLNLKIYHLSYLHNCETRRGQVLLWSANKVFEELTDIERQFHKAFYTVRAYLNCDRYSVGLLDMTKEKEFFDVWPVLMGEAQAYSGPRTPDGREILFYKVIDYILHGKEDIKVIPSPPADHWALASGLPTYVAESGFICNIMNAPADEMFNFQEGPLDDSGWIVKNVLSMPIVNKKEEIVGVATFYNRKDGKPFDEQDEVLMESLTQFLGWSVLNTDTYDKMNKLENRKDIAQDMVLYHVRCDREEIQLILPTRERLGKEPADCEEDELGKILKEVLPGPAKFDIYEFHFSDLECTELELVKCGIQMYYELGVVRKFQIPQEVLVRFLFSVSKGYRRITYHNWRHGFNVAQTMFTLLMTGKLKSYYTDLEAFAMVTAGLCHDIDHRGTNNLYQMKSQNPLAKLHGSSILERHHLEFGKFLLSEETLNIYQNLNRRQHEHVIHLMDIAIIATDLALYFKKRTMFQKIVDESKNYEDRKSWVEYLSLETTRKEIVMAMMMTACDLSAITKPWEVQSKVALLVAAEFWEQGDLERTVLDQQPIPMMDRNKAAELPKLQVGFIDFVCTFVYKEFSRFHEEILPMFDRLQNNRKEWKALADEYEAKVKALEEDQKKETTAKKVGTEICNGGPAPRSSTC
Method: More specifically, PDE5 and PDE3 were obtained from human blood platelet, and PDE6 was separated from bovine retina. Upon enzyme was separated out, the enzyme inhibition activity test would be carried out immediately. The said enzyme inhibition activity test was performed by directly detecting the scintillation proximity of AMP/GMP using TRKQ7100 and TRKQ7090 kits, which was generally as follows. In the presence of different concentrations of inhibitor and a small amount of substrate, 10 μl of buffer (50 mM Tris/HCl PH 7.5, 8.3 mM MgCl2, 1.7 mM EGTA) was added, and then water was added to a final volume of 100 μl. The reaction was initiated with a fixed amount of enzyme, incubated at 30° C. for 30 min, and then quenched with 50 μl of yttrium silicate beads comprising zinc sulphate. After shaken for 20 min, the reaction mixture was put in dark and settled for 30 min, and then readed on a BECKMAN LS6500 MULTI-PURPOSE SCINTILLATION COUNTER.

[2] = molecular target: T2, human blood platelet PDE5 (Homo sapiens, UniProt O76074); assay: PDE5 enzyme inhibition activity test (scintillation proximity); type: biochemical
T2 construct: obtained by suitably treating various tissues and separating the enzyme with FPLC; from tissue; host or cells: human blood platelets
Procedure, shortened: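 Enzymes were used immediately after isolation: PDE6 from bovine retina, PDE5 from human platelets. Each was incubated 30 min at 30 °C with varying inhibitor concentrations and a small amount of substrate in Tris/HCl pH 7.5 buffer with MgCl2 and EGTA. Reactions were quenched with zinc-sulphate yttrium silicate SPA beads and product counted by scintillation.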

Row | pIC50 [1] | PDE6 IC50/PDE5 IC50 [1] | pIC50 ([2]; PDE5 table) | pIC50 ([2]; as repeated in the PDE6 table) | SMILES
1 | 7.98 | 91.3 | 9.96 | 9.96 | CCCOc1ccc(C(=O)NCCCS(=O)(=O)O)cc1-c1nc(CC)c(CC)c(=O)[nH]1 [Example 169, 3-(3-(4,5-diethyl-1,6-dihydro-6-oxopyrimidin-2-yl)-4-n-propoxybenzamido)propyl-1-sulfonic acid]
2 | 8.13 | 21.4 | 9.47 | 9.47 | CCCOc1ccc(NC(=O)c2ccccc2)cc1-c1nc(CC)c(CC)c(=O)[nH]1 [Example 186, N-(3-(4,5-diethyl-1,6-dihydro-6-oxopyrimidin-2-yl)-4-n-propoxyphenyl)benzamide]
3 | 7.26 | 61.9 | 9.06 | 9.06 | CCCOc1ccc(NC(=O)NCCN(CC)CC)cc1-c1nc(CC)c(CC)c(=O)[nH]1.O=C(O)/C=C\C(=O)O [Example 204, 1-(2-(Diethylamino)ethyl)-3-(3-(4,5-diethyl-1,6-dihydro-6-oxopyrimidin-2-yl)-4-n-propoxyphenyl)urea maleate]

Continued, compound first:

Row | SMILES | pIC50 [1] | PDE6 IC50/PDE5 IC50 [1] | pIC50 ([2]; PDE5 table) | pIC50 ([2]; as repeated in the PDE6 table)
4 | CCCOc1ccc(C(=O)NC(C)C(=O)N2CCN(C)CC2)cc1-c1nc(CC)c(CC)c(=O)[nH]1 (stereo not drawn) [Example 154, 3-(4,5-diethyl-1,6-dihydro-6-oxopyrimidin-2-y1)-N-(1-(4-methylpiperazin-l-yl)-1-oxopropan-2-y1)-4-n-propoxybenzamide] | 7.42 | 94.6 | 9.40 | 9.40
5 | CCCOc1ccc(C(=O)N2CCN(CCOCCO)CC2)cc1-c1nc(CC)c(CC)c(=O)[nH]1 [Example 163] | 7.31 | 6.1 | 8.10 | 8.10
6 | CCCOc1ccc(C(=O)N2CCN(CCO)CC2)cc1-c1nc(CC)c(CC)c(=O)[nH]1 [Example 164] | 7.50 | 68.7 | 9.34 | 9.34
7 | CCCOc1ccc(C(=O)NC(C)CO)cc1-c1nc(CC)c(CC)c(=O)[nH]1 (stereo not drawn) [Example 166, 3-(4,5-diethyl-1,6-dihydro-6-oxopyrimidin-2-yl)-N-(1-hydroxyprop-2-yl)-4-n-propoxybenzamide] | 8.29 | 15.6 | 9.48 | 9.48
8 | CCCOc1ccc(C(=O)NC2CCC(C(=O)OC)NC2)cc1-c1nc(CC)c(CC)c(=O)[nH]1 (stereo not drawn) [Example 174, methyl 5-(3-(4,5-diethyl-1,6-dihydro-6-oxopyrimidin-2-yl)-4-n-propoxybenzamido)piperidine-2-formate] | 7.86 | 30.3 | 9.35 | 9.35
9 | CCCOc1ccc(C(=O)N2CCN(C)CC2)cc1-c1nc(CC)c(CC)c(=O)[nH]1 [Example 205] | 7.76 | 8.9 | 8.71 | 8.71
